Results from PubChem BioAssay (NCI).
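Abbreviation: GI50, concentration required for 50% inhibition of growth. At the TGI there is no net growth.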

Assays:
Assay in all cases: NCI tumour cell line growth inhibition, 384-well format
[1] = test system: 786-0 renal
[2] = test system: A498 renal
[3] = test system: A549 NSCLC
[4] = test system: ACHN renal
[5] = test system: BT-549 breast
[6] = test system: CAKI-1 renal
[7] = test system: CCRF-CEM leukemia
[8] = test system: COLO 205 colon
[9] = test system: DU-145 prostate
[10] = test system: EKVX NSCLC
[11] = test system: HCC-2998 colon
[12] = test system: HCT-15 colon
[13] = test system: HL-60(TB) leukemia
[14] = test system: HOP-62 NSCLC
[15] = test system: HOP-92 NSCLC
[16] = test system: HS 578T breast
[17] = test system: HT29 colon
[18] = test system: IGROV1 ovarian
[19] = test system: KM12 colon
[20] = test system: M14 melanoma
[21] = test system: MALME-3M melanoma
[22] = test system: MCF7 breast
[23] = test system: MDA-MB-231 breast
[24] = test system: MDA-MB-435 melanoma
[25] = test system: MDA-MB-468 breast
[26] = test system: MOLT-4 leukemia
[27] = test system: NCI-H226 lung
[28] = test system: NCI-H23 lung
[29] = test system: NCI-H322M lung
[30] = test system: NCI-H460 NSCLC
[31] = test system: NCI-H522 lung
[32] = test system: NCI/ADR-RES ovarian
[33] = test system: OVCAR-3 ovarian
[34] = test system: OVCAR-4 ovarian
[35] = test system: OVCAR-5 ovarian
[36] = test system: OVCAR-8 ovarian
[37] = test system: PC-3 prostate
[38] = test system: RPMI-8226 leukemia
[39] = test system: RXF 393 renal
[40] = test system: SF-268 CNS
[41] = test system: SF-295 CNS
[42] = test system: SF-539 CNS
[43] = test system: SK-MEL-2 melanoma
[44] = test system: SK-MEL-28 melanoma
[45] = test system: SK-MEL-5 melanoma
[46] = test system: SK-OV-3 ovarian
[47] = test system: SN12C renal
[48] = test system: SNB-19 CNS
[49] = test system: SNB-75 CNS
[50] = test system: SR leukemia
[51] = test system: SW-620 colon
[52] = test system: T-47D breast
[53] = test system: TK-10 renal
[54] = test system: U251 glioblastoma
[55] = test system: UACC-257 melanoma
[56] = test system: UACC-62 melanoma

## CN(C)CCN1C(=O)c2cccc3cc(N)cc(c23)C1=O
[1]
  GI50: 3.13 µM
  TGI: 13.5 µM
[2]
  GI50: 1.26 µM
  TGI: 4.62 µM
[3]
  GI50: 1.17 µM
  TGI: 3.64 µM
[4]
  GI50: 2.31 µM
  TGI: 4.44 µM
[5]
  GI50: 2.87 µM
  TGI: 7.03 µM
[6]
  GI50: 2.2 µM
  TGI: 6.36 µM
[7]
  GI50: 1 µM
  TGI: 2.19 µM
[8]
  GI50: 1.98 µM
  TGI: 5.32 µM
[9]
  GI50: 2.28 µM
  TGI: 14.2 µM
[10]
  GI50: 4.87 µM
  TGI: 19.6 µM
[11]
  GI50: 2.01 µM
  TGI: 5.47 µM
[12]
  GI50: 2.56 µM
  TGI: 8.07 µM
[13]
  GI50: 1.09 µM
  TGI: 2.35 µM
[14]
  GI50: 1.5 µM
  TGI: 3.65 µM
[15]
  GI50: 2.49 µM
  TGI: 6.89 µM
[16]
  GI50: 1.42 µM
  TGI: 5.1 µM
[17]
  GI50: 2.5 µM
  TGI: 6.43 µM
[18]
  GI50: 3.07 µM
  TGI: 16.5 µM
[19]
  GI50: 2.85 µM
  TGI: 14.8 µM
[20]
  GI50: 2.72 µM
  TGI: 7.79 µM
[21]
  GI50: 2.2 µM
  TGI: 4.92 µM
[22]
  GI50: 2.92 µM
  TGI: 16.3 µM
[23]
  GI50: 2.03 µM
  TGI: 5.55 µM
[24]
  GI50: 3.44 µM
  TGI: 12 µM
[25]
  GI50: 1.88 µM
  TGI: 4.73 µM
[26]
  GI50: 0.242 µM
  TGI: 0.572 µM
[27]
  GI50: 2.02 µM
  TGI: 4.05 µM
[28]
  GI50: 2.45 µM
  TGI: 5.59 µM
[29]
  GI50: 4.51 µM
  TGI: 18.2 µM
[30]
  GI50: 0.791 µM
  TGI: 2.27 µM
[31]
  GI50: 1.34 µM
  TGI: 3.03 µM
[32]
  GI50: 2.8 µM
  TGI: 7.79 µM
[33]
  GI50: 4.01 µM
  TGI: 14 µM
[34]
  GI50: 2.62 µM
  TGI: 5.94 µM
[35]
  GI50: 2.46 µM
  TGI: 6.66 µM
[36]
  GI50: 1.8 µM
  TGI: 3.63 µM
[37]
  GI50: 3.49 µM
  TGI: 11.3 µM
[38]
  GI50: 1.4 µM
  TGI: 2.82 µM
[39]
  GI50: 2.47 µM
  TGI: 6.06 µM
[40]
  GI50: 3.06 µM
  TGI: 8.24 µM
[41]
  GI50: 2.77 µM
  TGI: 12.1 µM
[42]
  GI50: 2.22 µM
  TGI: 6.64 µM
[43]
  GI50: 4.1 µM
  TGI: 6.11 µM
[44]
  GI50: 4.01 µM
  TGI: 8.86 µM
[45]
  GI50: 1.96 µM
  TGI: 3.53 µM
[46]
  GI50: 2.12 µM
  TGI: 6.21 µM
[47]
  GI50: 2.53 µM
  TGI: 11.4 µM
[48]
  GI50: 2.16 µM
  TGI: 6.75 µM
[49]
  GI50: 1.35 µM
  TGI: 4.62 µM
[50]
  GI50: 1.38 µM
  TGI: 2.69 µM
[51]
  GI50: 3.12 µM
  TGI: 12.1 µM
[52]
  GI50: 2.73 µM
  TGI: 6.62 µM
[53]
  GI50: 2.34 µM
  TGI: 7.61 µM
[54]
  GI50: 2.38 µM
  TGI: 5.62 µM
[55]
  GI50: 2.68 µM
  TGI: 6.03 µM
[56]
  GI50: 1.85 µM
  TGI: 3.61 µM
